Experiments:
Settings in all cases: 48 h
NOMO1 [1] = assay: AUC of viability dose-response curve (% viability x log10 dose units); higher = less sensitive
Procedure, shortened: (§1)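 Viability of medium-adapted leukemia cells was measured by CellTiter-Glo One luminescence after 48 h at 37°C with library compounds in DMSO. Doses were 11 threefold steps from 47 μM to 0.79 nM, in 1536-well plates at 500 or 1000 cells/well. Signals were normalised per plate to DMSO and cell-free wells and fitted with a four-parameter log-logistic model on log10 dose. Area under the curve was integrated by trapezoidal rule, with curves exceeding full viability scaled and failed quality-control curves removed.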

P12-Ichikawa [2] = assay: as above
Procedure, shortened: as §1

SEM cells [3] = assay: as above
Procedure, shortened: as §1

NOMO1 [4] = assay: cell viability relative to DMSO control; higher = less cytotoxic
Procedure, shortened: (§2)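 Cells were incubated for 48 h at 37°C before CellTiter-Glo One luminescence was read. The cells were NOMO1 or SEM (500 cells/well) or P12-Ichikawa (1000 cells/well) leukemia cells, adapted for at least four passages in each medium and seeded in 1536-well plates (5 μl). Dosing used library compounds in DMSO applied by pin over 11 threefold points, 47 μM to 0.79 nM. Viability is the per-plate percentage of DMSO wells, with cell-free wells as background.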

P12-Ichikawa [5] = assay: as above
Procedure, shortened: as §2

SEM cells [6] = assay: as above
Procedure, shortened: as §2

CCCNC(=O)Nc1ccc(Oc2ncnc3cc(OC)c(OC)cc23)cc1Cl
AUC of viability dose-response curve
Settings	NOMO1 [1]	P12-Ichikawa [2]	SEM cells [3]
HPLM + 10% dialyzed FBS	419	438	441
RPMI 5 mM glucose + 10% FBS	417	433	402
RPMI 5 mM glucose + 10% dialyzed FBS	424	440	413

cell viability [%]
Settings	NOMO1 [4]	P12-Ichikawa [5]	SEM cells [6]
HPLM + 10% dialyzed FBS, 0.000781 µM	96.9	88.2	101
HPLM + 10% dialyzed FBS, 0.00234 µM	98	97.6	93.5
HPLM + 10% dialyzed FBS, 0.00702 µM	84.1	93.4	108
HPLM + 10% dialyzed FBS, 0.0211 µM	95.7	99.9	104
HPLM + 10% dialyzed FBS, 0.0632 µM	97.7	98.7	102
HPLM + 10% dialyzed FBS, 0.19 µM	87.9	97.3	101
HPLM + 10% dialyzed FBS, 0.569 µM	103	89	89.8
HPLM + 10% dialyzed FBS, 1.71 µM	81.8	76.1	98.1
HPLM + 10% dialyzed FBS, 5.12 µM	71	88.1	81
HPLM + 10% dialyzed FBS, 15.4 µM	71.6	95.6	80.4
HPLM + 10% dialyzed FBS, 46.1 µM	73.5	84.2	47.6
RPMI 5 mM glucose + 10% FBS, 0.000781 µM	89.6	93.9	118
RPMI 5 mM glucose + 10% FBS, 0.00234 µM	90.7	97.3	125
RPMI 5 mM glucose + 10% FBS, 0.00702 µM	84.7	97.2	125
RPMI 5 mM glucose + 10% FBS, 0.0211 µM	95.7	99.8	146
RPMI 5 mM glucose + 10% FBS, 0.0632 µM	86	94.7	117
RPMI 5 mM glucose + 10% FBS, 0.19 µM	90.6	96.3	104
RPMI 5 mM glucose + 10% FBS, 0.569 µM	81.9	87.6	103
RPMI 5 mM glucose + 10% FBS, 1.71 µM	90.3	82.8	98
RPMI 5 mM glucose + 10% FBS, 5.12 µM	87.4	85.2	88.2
RPMI 5 mM glucose + 10% FBS, 15.4 µM	82	81.3	92.1
RPMI 5 mM glucose + 10% FBS, 46.1 µM	77.6	80.4	57.7
RPMI 5 mM glucose + 10% dialyzed FBS, 0.000781 µM	97.8	98.7	94
RPMI 5 mM glucose + 10% dialyzed FBS, 0.00234 µM	92.4	99.5	109
RPMI 5 mM glucose + 10% dialyzed FBS, 0.00702 µM	101	94.8	104
RPMI 5 mM glucose + 10% dialyzed FBS, 0.0211 µM	96.7	99.7	113
RPMI 5 mM glucose + 10% dialyzed FBS, 0.0632 µM	90.9	92	90.7
RPMI 5 mM glucose + 10% dialyzed FBS, 0.19 µM	88.4	91.1	98.5
RPMI 5 mM glucose + 10% dialyzed FBS, 0.569 µM	86.7	91.4	92.8
RPMI 5 mM glucose + 10% dialyzed FBS, 1.71 µM	84.4	93.5	78.9
RPMI 5 mM glucose + 10% dialyzed FBS, 5.12 µM	84.7	86.8	73.3
RPMI 5 mM glucose + 10% dialyzed FBS, 15.4 µM	81.9	86.5	75.5
RPMI 5 mM glucose + 10% dialyzed FBS, 46.1 µM	70.5	75.7	41.7

Cc1cc(Nc2cc(N3CCN(C)CC3)nc(Sc3ccc(NC(=O)C4CC4)cc3)n2)[nH]n1
AUC of viability dose-response curve
Settings	NOMO1 [1]	P12-Ichikawa [2]	SEM cells [3]
HPLM + 10% dialyzed FBS	389	298	304
RPMI 5 mM glucose + 10% FBS	390	302	286
RPMI 5 mM glucose + 10% dialyzed FBS	376	315	286

CCN[C@H]1C[C@H](C)[S+](=O)([O-])c2sc([S+](N)(=O)[O-])cc21
AUC of viability dose-response curve
Settings	HPLM + 10% dialyzed FBS	RPMI 5 mM glucose + 10% FBS	RPMI 5 mM glucose + 10% dialyzed FBS
NOMO1 [1]	434	452	415
P12-Ichikawa [2]	460	440	471

SEM cells [6], HPLM + 10% dialyzed FBS
Settings	cell viability [%]
0.000781 µM	137
0.00234 µM	100
0.00702 µM	120
0.0211 µM	126
0.0632 µM	36.4
0.19 µM	129
0.569 µM	135
1.71 µM	126
5.12 µM	52.8
15.4 µM	131
46.1 µM	118

CCCCC(C)(C)[C@H](O)/C=C/[C@H]1[C@H](O)CC(=O)[C@@H]1C/C=C\CCCC(=O)O
AUC of viability dose-response curve
Settings	NOMO1 [1]	P12-Ichikawa [2]	SEM cells [3]
HPLM + 10% dialyzed FBS	437	447	401
RPMI 5 mM glucose + 10% FBS	453	437	407
RPMI 5 mM glucose + 10% dialyzed FBS	431	442	403

SEM cells [6], RPMI 5 mM glucose + 10% FBS
Settings	cell viability [%]
0.000781 µM	101
0.00234 µM	123
0.00702 µM	131
0.0211 µM	120
0.0632 µM	119
0.19 µM	137
0.569 µM	117
1.71 µM	130
5.12 µM	51.5
15.4 µM	78.2
46.1 µM	13.4

C/C=C/C(=O)N(CC)c1ccccc1C
AUC of viability dose-response curve
Settings	NOMO1 [1]	P12-Ichikawa [2]	SEM cells [3]
HPLM + 10% dialyzed FBS	393	458	434
RPMI 5 mM glucose + 10% FBS	431	470	465
RPMI 5 mM glucose + 10% dialyzed FBS	399	432	428

ClC/1=C(NCCN2CCOCC2)/C(=O)C3=C(C=CC=N3)C1=O
AUC of viability dose-response curve
Settings	NOMO1 [1]	P12-Ichikawa [2]	SEM cells [3]
HPLM + 10% dialyzed FBS	416	450	410
RPMI 5 mM glucose + 10% FBS	410	445	381
RPMI 5 mM glucose + 10% dialyzed FBS	406	438	392

SEM cells [6], HPLM + 10% dialyzed FBS
Settings	cell viability [%]
0.000781 µM	104
0.00234 µM	105
0.00702 µM	121
0.0211 µM	118
0.0632 µM	131
0.19 µM	127
0.569 µM	127
1.71 µM	115
5.12 µM	95.4
15.4 µM	35.8
46.1 µM	4.66
